Assay results from patent US9796753B2, “N-substituted indenoisoquinolines and syntheses thereof” (Purdue Research Foundation, priority 2005, dated 2017).
Like-named read-outs stand apart in the source and are kept apart here.

Tests used:
Format in all cases: cell-based
[1] = tested on: all human cancer cell lines successfully tested; assay: NCI screen mean graph midpoint (MGM) for growth inhibition
Method: COMPARE screening. The compounds described herein were examined for antiproliferative activity against the human cancer cell lines in the National Cancer Institute screen (COMPARE screening), in which the activity of each compound was evaluated with approximately 55 different cancer cell lines of diverse tumor origins. […] Therefore, the MGM value represents an overall assessment of toxicity of the compound across numerous cell lines.
(§1) Selected compounds were tested for antiproliferative activity in the National Cancer Institute's developmental therapeutics assay 60 cell line screen (NCI60). The cells were incubated with the tested compounds at 100, 10, 1, 0.1, and 0.01 μM concentrations for 48 h before treatment with sulforhodamine B dye. Optical densities were recorded, and their ratios relative to that of the control were plotted as percentage growth against the log 10 of the tested compound concentrations.
The cytotoxicities of the compounds to cultured cancer cells were measured in the National Cancer Institute's 60 cell line assay (a.k.a. NCI-60).

breast MDA-MB-435 = assay: COMPARE screening (NCI human cancer cell line screen), cytotoxicity GI50
melanoma UACC-62 = assay: as above
Method: as §1

colon HCT-116 = assay: as above
Method: as §1

renal SN12C = assay: as above
Method: as §1

prostate DU-145 = assay: as above
Method: as §1

lung HOP-62 = assay: as above
Method: as §1

CNS SF-539 = assay: as above
Method: as §1

ovarian OVCAR-3 = assay: as above
Method: as §1

[2] = Table 1, average GI50 of all cell lines tested (approximately 55), test range 10^−8 to 10^−4 molar
[3] = all human cancer cell lines successfully tested
[4] = breast MDA-MB-435, concentration corresponding to 50% growth inhibition, read-out: cytotoxicity (GI50 in μM) breast MDA-MB-435
[5] = colon HCT-116, concentration corresponding to 50% growth inhibition, read-out: cytotoxicity (GI50 in μM) colon HCT-116
[6] = prostate DU-145, concentration corresponding to 50% growth inhibition, read-out: cytotoxicity (GI50 in μM) prostate DU-145
[7] = lung HOP-62, concentration corresponding to 50% growth inhibition, read-out: cytotoxicity (GI50 in μM) lung HOP-62
[8] = ovarian OVCAR-3, concentration corresponding to 50% growth inhibition, read-out: cytotoxicity (GI50 in μM) ovarian OVCAR-3
[9] = CNS SF-539, concentration corresponding to 50% growth inhibition, read-out: cytotoxicity (GI50 in μM) CNS SF-539
[10] = Homo sapiens, MDA-MB-435, read-out: cytotoxicity (GI50) breast MDA-MB-435
[11] = Homo sapiens, UACC-62, read-out: cytotoxicity (GI50) melanoma UACC-62
[12] = Homo sapiens, SN12C, read-out: cytotoxicity (GI50) renal SN12C
[13] = Homo sapiens, DU-145, read-out: cytotoxicity (GI50) prostate DU-145
[14] = Homo sapiens, HOP-62, read-out: cytotoxicity (GI50) lung HOP-62
[15] = Homo sapiens, OVCAR-3, read-out: cytotoxicity (GI50) ovarian OVCAR-3
[16] = Homo sapiens, CNSSF-539, read-out: cytotoxicity (GI50) CNS SF-539

Compound	GI50 (breast MDA-MB-435) [µM]	GI50 (melanoma UACC-62) [µM]	GI50 (colon HCT-116) [µM]	GI50 (renal SN12C) [µM]	GI50 (prostate DU-145) [µM]	GI50 (lung HOP-62) [µM]	GI50 (CNS SF-539) [µM]	MGM (mean GI50 across cell lines) [1, 2] [µM]	GI50 (ovarian OVCAR-3) [µM]	other results
O=C1c2ccccc2-c2c1c1ccc([N+](=O)[O-])cc1c(=O)n2CCCN1CCOCC1 [Compound 5bi]	1.23	0.38	0.038	0.309	0.085	0.021	0.095			MGM (mean graph midpoint for growth inhibition) [1, 2]: 0.632 ± 0.029 µM
CC(C)(C)OC(=O)N(CCCn1c2c(c3ccccc3c1=O)C(=O)c1ccccc1-2)CCN(CCCn1c2c(c3ccccc3c1=O)C(=O)c1ccccc1-2)C(=O)OC(C)(C)C [Compound 13b, Bis-1,2-{(5,6-dihydro-5,11-diketo-11H-indeno[1,2-c]isoquinoline)-(6-propyl-tert-BOCamino)}ethane]										MGM (mean GI50 across cell lines) [1, 3]: 28.2 µM; GI50 (breast MDA-MB-435; [4]): > 50.1 µM; GI50 (melanoma UACC-62; melanoma UACC-62, concentration corresponding to 50% growth inhibition, read-out: cytotoxicity (GI50 in μM) melanoma UACC-62): 45.7 µM; GI50 (colon HCT-116; [5]): 14.1 µM; GI50 (renal SN12C; renal SN12C, concentration corresponding to 50% growth inhibition, read-out: cytotoxicity (GI50 in μM) renal SN12C): 39.8 µM; GI50 (prostate DU-145; [6]): > 50.1 µM; GI50 (lung HOP-62; [7]): 20 µM; GI50 (ovarian OVCAR-3; [8]): 13.2 µM; GI50 (CNS SF-539; [9]): > 50.1 µM
O=C1c2ccccc2-c2c1c1ccccc1c(=O)n2CCN1CCOCC1 [Compound 5j]	> 100	29.5	36.3	93.3	> 100	> 100	85.1	67.6	81.3	
O=C1c2ccccc2-c2c1c1ccccc1c(=O)n2CCCNCCCn1c2c(c3ccccc3c1=O)C(=O)c1ccccc1-2 [Compound 12c, Bis{(5,6-dihydro-5,11-diketo-11H-indeno[1,2-c]isoquinoline)-6-propyl}amine]	8.91	6.61	0.55	1.55	1	0.794	3.63		2.95	MGM (mean graph midpoint for growth inhibition) [1, 3]: 4.28 ± 1.89 µM
Cl.O=C1c2ccccc2-c2c1c1ccccc1c(=O)n2CCc1ccccn1 [Compound 5ay, 5,6-Dihydro-5,11-dioxo-6-(2-pyridylethyl)-11H-indeno[1,2-c]isoquinoline Hydrochloride]								53.7		GI50 (breast MDA-MB-435; [10]): 5.13 µM; GI50 (melanoma UACC-62; [11]): 27.5 µM; GI50 (renal SN12C; [12]): 77.6 µM; GI50 (prostate DU-145; [13]): 74.1 µM; GI50 (lung HOP-62; [14]): 21.4 µM; GI50 (ovarian OVCAR-3; [15]): > 100 µM; GI50 (CNS SF-539; [16]): 17.4 µM
COc1cc2c3c(n(CCCn4ccnc4)c(=O)c2cc1OC)-c1cc2c(cc1C3=O)OCO2.Cl [Compound 5l, Hydrochloride]	0.02	< 0.01	< 0.01	< 0.01	< 0.01	< 0.01	0.037			GI50 (ovarian OVCAR-3; Table 1, concentration corresponding to 50% growth inhibition, read-out: cytotoxicity (GI50) ovarian OVCAR-3): 0.085 µM
CC(C)(C)OC(=O)NCCCCCCCCCn1c2c(c3ccccc3c1=O)C(=O)c1ccccc1-2 [Compound 5ah, 6-(9′-tert-BOC-Aminononyl)-5,6-dihydro-5,11-dioxo-11H-indeno[1,2-c]isoquinoline]	> 100	17.4		77.6	> 100	24.5	17.8	50.1	28.8	
Bis-1,2-{(5,6-dihydro-5,11-diketo-11H-indeno[1,2-c]isoquinoline)-6-ethylamino-ethylamino}ethane Tetra(trifluoroacetate) [Compound 14j]	0.126		0.2		0.085	0.977	0.012		0.032	MGM (mean graph midpoint for growth inhibition) [1, 3]: 0.262 ± 0.100 µM
COc1cc2c3c(n(CCCNCCCNCCCn4c5c(c6ccccc6c4=O)C(=O)c4ccccc4-5)c(=O)c2cc1OC)-c1cc2c(cc1C3=O)OCO2.O=C(O)C(F)(F)F.O=C(O)C(F)(F)F [Compound 17a, 1,3-{6-(3-Amino-1-propyl)-5,6-dihydro-2,3-dimethoxy-8,9-methylenedioxy-5,1-dioxo-11H-indeno[1,2-c]isoquinoline}-{5′,6′-Dihydro-6′-(3′-amino-1′-propyl)-5′,11′-dioxo-11′H-indeno[1,2-c]isoquinoline}propane Bis(trifluoroacetate)]										MGM (mean graph midpoint for growth inhibition) [1, 3]: 0.046 ± 0.010 µM; GI50 (breast MDA-MB-435; [4]): 0.155 µM; GI50 (colon HCT-116; [5]): 0.022 µM; GI50 (prostate DU-145; [6]): 0.01 µM; GI50 (lung HOP-62; [7]): 0.191 µM; GI50 (ovarian OVCAR-3; [8]): < 0.01 µM; GI50 (CNS SF-539; [9]): < 0.01 µM
O=C1c2ccccc2-c2c1c1ccccc1c(=O)n2Cc1ccccn1 [Compound 5aw, 5,6-Dihydro-5,11-dioxo-6-(2-pyridylmethyl)-11H-indeno[1,2-c]isoquinoline]								15.1		GI50 (breast MDA-MB-435; [10]): 3.09 µM; GI50 (melanoma UACC-62; [11]): 10.7 µM; GI50 (renal SN12C; [12]): 28.2 µM; GI50 (prostate DU-145; [13]): 13.5 µM; GI50 (lung HOP-62; [14]): 11.2 µM; GI50 (ovarian OVCAR-3; [15]): 13.8 µM; GI50 (CNS SF-539; [16]): 12.3 µM
COc1ccc2c(c1)C(=O)c1c-2n(CCCN)c(=O)c2ccccc12.Cl [Compound 5bg]	0.059		< 0.01	< 0.01	0.014	< 0.01	0.038		0.028	MGM (mean graph midpoint for growth inhibition) [1, 2]: 0.048 ± 0.024 µM
COc1ccc2c(c1)C(=O)c1c-2n(CCCNCCO)c(=O)c2cc([N+](=O)[O-])ccc12.Cl [Compound 5bm]	< 0.01	< 0.01		0.012	< 0.03	< 0.01	< 0.01	0.016	< 0.01	
CC(C)(C)OC(=O)NCCCCCCCCn1c2c(c3ccccc3c1=O)C(=O)c1ccccc1-2 [Compound 5ag, 6-(8′-tert-BOC-Aminooctyl)-5,6-dihydro-5,11-dioxo-11H-indeno[1,2-c]isoquinoline]	> 50.1	15.5	25.7	> 50.1	> 50.1	10.7	8.71	19.9		
Cl.O=C1c2ccccc2-c2c1c1ccccc1c(=O)n2CCCNCCO [Compound 5bo]	0.49	0.178		0.269	0.174	0.195	0.55	0.339	0.55	
COc1ccc2c(c1)C(=O)c1c-2n(CCCI)c(=O)c2cc([N+](=O)[O-])ccc12 [Compound 5bd]	1.48	0.148	0.046	0.309	0.034		0.058		3.02	MGM (mean graph midpoint for growth inhibition) [1, 2]: 0.328 ± 0.046 µM
